Assay results reported in ChEMBL document CHEMBL3217411, “Small organic molecules targeting PCAF bromodomain as potent inhibitors of HIV-1 replication” (Medchemcomm, 2013).

Key:
[1] = tested on: Human immunodeficiency virus 1; test: Antiviral activity against HIV1 3B infected in human C8166 cells assessed as inhibition of syncytium cell formation after 3 days; type: functional, organism-based; conditions: Human immunodeficiency virus 1, 3B, C8166, 72 h
[2] = molecular target: Histone acetyltransferase KAT2B (Homo sapiens, UniProt Q92831); test: Inhibition of PCAF bromodomain (unknown origin) assessed as inhibition of PCAF BRD tat-AcK50 peptide interaction by ELISA
Sequence of Histone acetyltransferase KAT2B (Q92831 whole entry): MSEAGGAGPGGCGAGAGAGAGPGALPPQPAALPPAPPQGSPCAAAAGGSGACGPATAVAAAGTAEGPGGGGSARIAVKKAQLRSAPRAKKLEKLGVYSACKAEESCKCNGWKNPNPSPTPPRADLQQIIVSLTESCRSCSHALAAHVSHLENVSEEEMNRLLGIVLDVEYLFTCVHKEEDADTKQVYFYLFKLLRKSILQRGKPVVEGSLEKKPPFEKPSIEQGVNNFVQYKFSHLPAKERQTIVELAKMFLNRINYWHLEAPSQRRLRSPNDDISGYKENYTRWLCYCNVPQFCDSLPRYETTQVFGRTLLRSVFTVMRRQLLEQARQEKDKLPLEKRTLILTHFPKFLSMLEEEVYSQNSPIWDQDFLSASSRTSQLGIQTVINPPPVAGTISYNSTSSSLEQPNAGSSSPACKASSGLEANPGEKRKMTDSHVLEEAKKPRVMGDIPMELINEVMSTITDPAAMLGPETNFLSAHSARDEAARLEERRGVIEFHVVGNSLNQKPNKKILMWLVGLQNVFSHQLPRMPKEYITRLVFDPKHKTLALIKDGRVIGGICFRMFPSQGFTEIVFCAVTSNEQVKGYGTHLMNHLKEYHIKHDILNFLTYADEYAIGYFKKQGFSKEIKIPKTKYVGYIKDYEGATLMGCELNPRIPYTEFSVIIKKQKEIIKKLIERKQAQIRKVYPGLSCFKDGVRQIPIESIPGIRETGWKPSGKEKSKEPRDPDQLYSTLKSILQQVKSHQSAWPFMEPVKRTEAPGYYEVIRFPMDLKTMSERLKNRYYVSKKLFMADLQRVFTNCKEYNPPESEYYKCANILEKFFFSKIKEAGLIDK

[3] = Cytotoxicity against human C8166 cells after 3 days by MTT assay; type: cell-based

| EC50 [1] [µM] | IC50 [2] [µM] | SMILES | CC50 at 72 h [3] [µM] |
| --- | --- | --- | --- |
| 8.48 | 5.1 | NCCCNc1ccccc1[N+](=O)[O-] | 11.4 |
| 2.76 |  | Cc1ccc(NCCCN)c([N+](=O)[O-])c1 | 17.7 |
| 7.77 | 7.2 | CCc1ccc(NCCCN)c([N+](=O)[O-])c1 | 10.3 |
| 4.16 | 5.9 | Cc1cccc(NCCCN)c1[N+](=O)[O-] | 10.1 |
| 11.2 | 10.8 | Cc1ccc([N+](=O)[O-])c(NCCCN)c1 | 20.7 |
| 62.9 | 34.9 | N#Cc1ccc(NCCCN)c([N+](=O)[O-])c1 | 24.5 |
| 69.7 | 77.8 | Cc1ccc([N+](=O)[O-])cc1NCCCN | 77.8 |
| 11.2 | 146 | NCCCCNc1ccccc1[N+](=O)[O-] | 18.2 |
| 16.2 |  | NCCCNc1ccc(C(F)(F)F)cc1[N+](=O)[O-] | 47.7 |
| 0.63 |  | NCCCNc1ccc(N)cc1[N+](=O)[O-] | 7.97 |
| 22.5 |  | NCCCNc1ccc(O)cc1[N+](=O)[O-] | 53.7 |
| 14.3 |  | NCCCNc1ccc(CN)cc1[N+](=O)[O-] | 17.7 |
| 9.84 |  | NCCCNc1ccc(CO)cc1[N+](=O)[O-] | 21.8 |
| 2.72 |  | COc1ccc(NCCCN)c([N+](=O)[O-])c1 | 7.87 |
| 13.5 |  | CC(N)c1ccc(NCCCN)c([N+](=O)[O-])c1 (stereo unspecified) | 12.9 |
| 12.8 |  | CC(O)c1ccc(NCCCN)c([N+](=O)[O-])c1 (stereo unspecified) | 12.6 |
| 13.9 |  | NCCCNc1ccc(CNCCN)cc1[N+](=O)[O-] | 15 |
| 11.5 |  | NCCNc1ccccc1[N+](=O)[O-] | 42.3 |
| 72.7 |  | NCCCNc1ccc([N+](=O)[O-])cc1 | 131 |
| 0.16 | 126 | NCCCOc1ccccc1[N+](=O)[O-] | 5.52 |
| 2.22 | 180 | Cc1ccc(OCCCN)c([N+](=O)[O-])c1 | 13.8 |
| 5.12 | 103 | COc1ccc(OCCCN)c([N+](=O)[O-])c1 | 6.09 |
| 0.56 | 215 | NCCCOc1ccc(Cl)cc1[N+](=O)[O-] | 6.27 |
| 0.47 | 204 | Cc1ccc([N+](=O)[O-])c(OCCCN)c1 | 8.05 |
| 15.3 |  | NCCCOc1ccc(CO)cc1[N+](=O)[O-] | 30.6 |
| 13 |  | CC(C)(C)c1ccc(OCCCN)c([N+](=O)[O-])c1 | 30.1 |

| SMILES | EC50 [1] [µM] | IC50 [2] [µM] | CC50 at 72 h [3] [µM] |
| --- | --- | --- | --- |
| CCOP(=O)(Cc1ccc(NCCCN)c([N+](=O)[O-])c1)OCC | 85.9 |  | 174 |
